Experimental data taken from US10864211B2, “Hydroxy isoxazole compounds useful as GPR120 agonists” (Merck Sharp & Dohme Corp., priority 2016, dated 2020).
pEC50: −log10 of the molar value. Structures can show the parent of a compound that is named as a salt.

Biological target: T1, human GPR120 (Homo sapiens, UniProt Q5NUL3)
T1 construct: expressed in transfected cells; host or cells: CHO-K1
T1 sequence (Q5NUL3 1-361): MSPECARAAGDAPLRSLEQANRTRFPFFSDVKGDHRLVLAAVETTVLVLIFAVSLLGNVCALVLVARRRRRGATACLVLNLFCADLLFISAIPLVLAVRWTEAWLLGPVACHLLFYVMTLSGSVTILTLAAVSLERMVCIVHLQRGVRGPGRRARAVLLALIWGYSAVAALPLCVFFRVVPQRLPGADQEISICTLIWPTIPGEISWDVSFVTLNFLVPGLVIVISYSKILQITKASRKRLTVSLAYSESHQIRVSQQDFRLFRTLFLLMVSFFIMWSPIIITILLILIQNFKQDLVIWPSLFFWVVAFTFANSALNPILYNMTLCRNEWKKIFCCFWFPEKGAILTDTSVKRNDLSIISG
Test: Human GPR120 IP1 assay (inositol phosphate turnover)
Type: cell-based
Settings: IP1 accumulation in CHO-K1 cells stably expressing the short form of human GPR120
Excerpt: The binding of small molecule agonists to the G-protein-coupled receptor GPR120 activates phospholipase C, and leads to the generation of inositol 1,4,5-trisphosphate (InsP3 or IP3). IP3 is subsequently de-phosphorylated to IP1, which accumulates in cells and is stable in the presence of lithium chloride.
In the present method, agonist-induced activation of the human and rat GPR120 receptor was monitored by measuring the accumulation of IP1 in CHO-K1 cells that were stably expressing the short form of human GPR120 (Accession #NM_001195755) or HEK293 cells stably expressing rat GPR120 (Accession #NM_001047088). Following agonist addition, GPR120 activation and subsequent accumulation of IP1 was measured using a homogeneous Time Resolved Fluorescence-based ELISA commercially available from CisBio (IP-one ELISA Kit). The IP-One ELISA was a competitive immunoassay which uses IP1 labeled with […] and a terbium cryptate-labeled anti-IP1 monoclonal antibody. […] The signal loss was then back calculated to IP1 concentration using an IP1 standard curve. Determination of IP1 concentration was a direct measure of GPR120 activation and was used to determine compound potency (EC50).
Human GPR120 stable cell-lines were generated in CHO cells. The expression plasmids were transfected using lipofectamine (Life Technologies) following manufacturer's instructions. Stable cell-lines were generated following drug selection and single cell cloning. Rat GPR120 stable cell-lines were generated in HEK cells using the Jump-In™ cell engineering platform (Life Technologies) following manufacturer's instructions. Stable cell-lines were generated following drug selection and single cell cloning.
The assay was performed in 384-well format. CHO cells stably expressing human GPR120 were plated at 20,000 cells per well in growth medium (DMEM/F12, 10% fetal calf serum). HEK293 cells stably expressing rat GPR120 were plated at […] per well in growth medium (DMEM, 10% fetal calf serum). Cell plates were then incubated 16 hours at 37 degrees in a 5% CO2 incubator. Measurement of Inositol Phosphate Turnover (IP1) was performed using the CisBio IP-One kit (Part number 62IPAPEB). After the 16 hour incubation, the growth media was removed by centrifugation using the BlueWasher (AusWasher GUI Ver. v1.0.1.8) Protocol #21-“Light Dry” and 10 μl of stimulation buffer (prepared as described in the kit) was added to each well. In a separate plate, compounds were diluted in DMSO (200-fold over the final concentration in the assay well) and 50 nl was acoustically transferred to the appropriate well in the assay cell plate. The plates were then incubated for 60 minutes at 37 degrees in a 5% CO2 incubator. 10 μl of detection buffer (also prepared as described in the IP-One kit) was added to each well and the plates were incubated at room temperature for 60 minutes in the dark. The plates were then read in a Perkin ElmerEnVision or equivalent reader able to measure FRET. Fluorescent ratio of emission at 665 and 620 nm was then converted to the IP1 concentration by back calculating from an IP1 standard curve prepared at the time of the assay. The data was normalized to % activity using a reference compound, and the EC50 values were determined using a standard 4-parameter fit.

Compound	pEC50
Oc1cc(-c2cnc(O[C@H]3C[C@@H](c4ccc5c(c4)OCCO5)C3)cn2)on1 [Example 42, ammonium 5-(5-{[cis-3-(2,3-dihydro-1,4-benzodioxin-6-yl)cyclobutyl]oxy}pyrazin-2-yl)isoxazol-3-olate]	7.07
CC(OC1CC(Oc2ccc(-c3cc(O)no3)cn2)C1)c1ccccc1 (mixture of isomers) [Example 78, 5-(6-{[3-(1-phenylethoxy)cyclobuty]oxy}pyridin-3-yl)isoxazol-3-ol (mixture of isomers)]	6.52
N#Cc1cccc(COC2CC(Oc3ccc(-c4cc(O)no4)cn3)C2)c1 (mixture of isomers) [Example 73, 3-{[(cis-3-{[5-(3-hydroxyisoxazol-5-yl)pyridin-2-yl]oxy}cyclobutyl)oxy]methyl}benzonitrile (mixture of isomers predominantly cis)]	6.78
Cc1nc(C(F)(F)F)c(CO[C@H]2C[C@@H](Oc3ccc(-c4cc(O)no4)cn3)C2)s1 [Example 75, 5-(3-hydroxyisoxazol-5-yl)-2-[(cis-3-{[2-methyl-4-(trifluoromethyl)-1,3-thiazol-5-yl]methoxy}cyclobutyl)oxy] pyridinium trifluoroacetate]	6.83
Cc1ccc([C@H]2C[C@@H](Oc3ncc(-c4cc(O)no4)cn3)C2)c(F)c1 [Example 114, sodium 5-(2-{[cis-3-(2-fluoro-4-methylphenyl)cyclobutyl]oxy}pyrimidin-5-yl)isoxazol-3-olate]	6.72
Oc1cc(-c2cnc(O[C@H]3C[C@@H](c4ccc(OC(F)F)cc4)C3)cn2)on1 [Example 58, 5-[5-({cis-3-[4-(difluoromethoxy)phenyl]cyclobutyl}oxy)pyrazin-2-yl]isoxazol-3-ol]	6.98
Oc1cc(-c2ccc(OC3CC(OCc4cc(F)ccc4C(F)(F)F)C3)nc2)on1 (mixture of isomers) [Example 76, ammonium 5-{6-[(cis-3-{[5-fluoro-2-(trifluoromethyl)benzyl]oxy}cyclobutyl)oxy]pyridin-3-yl)isoxazol-3-olate (mixture of isomers predominantly cis)]	6.86
Oc1cc(-c2cnc(O[C@H]3C[C@@H](c4cccc(-c5cnco5)c4)C3)cn2)on1 [Example 19, ammonium 5-[5-({cis-3-[3-(1,3-oxazol-5-yl)phenyl]-cyclobutyl}oxy)pyrazin-2-yl]isoxazol-3-olate]	7.12
Oc1cc(-c2cnc(O[C@H]3C[C@H](c4ccc(C5CC(F)(F)C5)cc4)C3)cn2)on1 [Example 29, 5-[5-({trans-3-[4-(3,3-difluorocyclobutyl)phenyl]cyclobutyl}oxy)pyrazin-2-yl]isoxazol-3-ol]	6.77
Oc1cc(-c2cnc(O[C@H]3C[C@@H](c4ccc(C5CC(F)(F)C5)cc4)C3)cn2)on1 [Example 30, 5-[5-({cis-3-[4-(3,3-difluorocyclobutyl)phenyl]cyclobutyl}oxy)pyrazin-2-yl)isoxazol-3-ol]	6.81
Oc1cc(-c2cnc(O[C@H]3C[C@@](F)(c4cc(C(F)(F)F)ccc4F)C3)cn2)on1 [Example 107, 5-[5-({trans-3-fluoro-3-[2-fluoro-5-(trifluoromethyl)phenyl]cyclobutyl}oxy)pyrazin-2-yl]isoxazol-3-ol]	6.67
Oc1cc(-c2cnc(O[C@H]3C[C@H](c4ccnc(OC5CC5)c4)C3)cn2)on1 [Example 33, sodium 5-[5-({trans-3-[2-(cyclopropyloxy)pyridin-4-yl]cyclobutyl}oxy)pyrazin-2-yl]isoxazol-3-olate]	6.49

These reach a higher pEC50. Values come first.

pEC50	Compound
7.21	Oc1cc(-c2ccc(O[C@H]3C[C@H](c4ccnc(OC5CC5)c4)C3)nc2)on1 [Example 31, sodium 5-[6-({trans-3-[2-(cyclopropyloxy)pyridin-4-yl]cyclobutyl}oxy)pyridin-3-yl]isoxazol-3-olate]
7.28	Oc1cc(-c2cnc(O[C@H]3C[C@@H](Oc4cccc(OC(F)(F)F)c4)C3)cn2)on1 [Example 68, 5-[5-({cis-3-[3-(trifluoromethoxy)phenoxy]cyclobutyl}oxy)pyrazin-2-yl]isoxazol-3-ol]
7.34	Oc1cc(-c2cnc(O[C@H]3C[C@@H](c4ccc(C(F)(F)F)cn4)C3)cn2)on1 [Example 25, 5-[5-({cis-3-[5-(trifluoromethyl)pyridin-2-yl]cyclobutyl}oxy)pyrazin-2-yl]isoxazol-3-ol]
7.39	Oc1cc(-c2ccc(OC3CC(c4ccccc4)C3)nc2)on1 (stereo not drawn) [Example 36, 5-{6-[(3-phenylcyclobutyl)oxy]pyridin-3-yl}isoxazol-3-ol trifluoroacetate]
7.51	Oc1cc(-c2cnc(OC3CC(OCC4CCCC4)C3)cn2)on1 (mixture of isomers) [Example 81, sodium 5-(5-{[cis-3-(cyclopentylmethoxy)cyclobutyl]oxy}pyrazin-2-yl)isoxazol-3-olate (mixture of isomers predominantly cis)]
7.62	Cc1ccc([C@H]2C[C@@H](Oc3cnc(-c4cc(O)no4)cn3)C2)c(F)c1 [Example 48, 5-(5-{[cis-3-(2-fluoro-4-methylphenyl)cyclobutyl]oxy}pyrazin-2-yl)isoxazol-3-ol]
7.62	Oc1cc(-c2cnc(O[C@H]3C[C@@H](c4ccc(F)c(C(F)F)c4)C3)cn2)on1 [Example 45, 5-[5-({cis-3-[3-(difluoromethyl)-4-fluorophenyl]cyclobutyl}oxy)pyrazin-2-yl]isoxazol-3-ol]
7.64	Cc1ccc([C@H]2C[C@@H](Oc3cnc(-c4cc(O)no4)cn3)C2)cc1F [Example 57, 5-(5-{[cis-3-(3-fluoro-4-methylphenyl)cyclobutyl]oxy}pyrazin-2-yl)isoxazol-3-ol]
7.66	Oc1cc(-c2ccc(O[C@H]3C[C@](F)(c4ccnc(OC5CC5)c4)C3)nc2)on1 [Example 90]
7.72	CCc1ccc([C@H]2C[C@@H](Oc3ccc(-c4cc(O)no4)cn3)C2)cc1 [Example 14, 5-(6-{[cis-3-(4-ethylphenyl)-cyclobutyl]oxy}pyridin-3-yl)isoxazol-3-ol]
7.77	Oc1cc(-c2cnc(O[C@H]3C[C@@H](c4cccc(OC(F)F)c4F)C3)cn2)on1 [Example 41, 5-[5-({cis-3-[3-(difluoromethoxy)-2-fluorophenyl]cyclobutyl}oxy)pyrazin-2-yl]isoxazol-3-ol]
7.89	Oc1cc(-c2cnc(O[C@H]3C[C@H](c4ccc(OC5CC5)cc4)C3)cn2)on1 [Example 60, 5-[5-({trans-3-[4-(cyclopropyloxyl)phenyl]cyclobutyl}oxy)pyrazin-2-yl]isoxazol-3-ol]
7.96	Oc1cc(-c2cnc(O[C@H]3C[C@@H](c4ccc(Cl)cc4)C3)nc2)on1 [Example 109, 5-(2-{[cis-3-(4-chlorophenyl)cyclobutyl]oxy}pyrimidin-5-yl)isoxazol-3-ol]
7.96	Oc1cc(-c2cnc(O[C@H]3C[C@@H](c4ccc(C(F)(F)F)cc4)C3)cn2)on1 [Example 55, 5-[5-({cis-3-[4-(trifluoromethyl)phenyl]cyclobutyl}oxy)pyrazin-2-yl]isoxazol-3-ol]
8.01	Oc1cc(-c2cnc(O[C@H]3C[C@@H](c4c(F)cc(Cl)cc4F)C3)cn2)on1 [Example 49, ammonium 5-(5-{[cis-3-(4-chloro-2,6-difluorophenyl)-cyclobutyl]oxy}pyrazin-2-yl)isoxazol-3-olate]
